The target in one data set is T1, topoisomerase Type I (Bos taurus, UniProt F1MN93).
T1 sequence (F1MN93 1-767): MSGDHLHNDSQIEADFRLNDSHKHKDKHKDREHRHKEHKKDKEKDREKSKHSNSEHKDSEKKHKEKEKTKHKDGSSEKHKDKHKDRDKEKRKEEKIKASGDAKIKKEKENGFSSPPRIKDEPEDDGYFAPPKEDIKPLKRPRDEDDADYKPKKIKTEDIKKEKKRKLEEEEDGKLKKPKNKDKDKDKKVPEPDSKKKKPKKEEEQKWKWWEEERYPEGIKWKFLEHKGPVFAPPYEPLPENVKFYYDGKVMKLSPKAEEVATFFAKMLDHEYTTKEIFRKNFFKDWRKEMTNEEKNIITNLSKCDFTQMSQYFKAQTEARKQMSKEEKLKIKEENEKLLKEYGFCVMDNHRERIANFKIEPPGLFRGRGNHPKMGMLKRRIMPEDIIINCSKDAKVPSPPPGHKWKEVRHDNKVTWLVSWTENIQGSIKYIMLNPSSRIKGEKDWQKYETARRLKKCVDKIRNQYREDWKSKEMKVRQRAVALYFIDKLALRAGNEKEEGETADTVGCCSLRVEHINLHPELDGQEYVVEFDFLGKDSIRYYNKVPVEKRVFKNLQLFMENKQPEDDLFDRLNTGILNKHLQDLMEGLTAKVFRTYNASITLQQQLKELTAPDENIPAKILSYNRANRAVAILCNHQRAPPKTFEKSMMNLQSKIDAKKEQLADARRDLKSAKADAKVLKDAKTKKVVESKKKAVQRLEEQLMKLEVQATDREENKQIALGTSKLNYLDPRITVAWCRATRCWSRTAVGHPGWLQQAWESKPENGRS
Briefly: biochemical. As for the experimental part:
Cleavable Complex in vitro Assay
The relative topoisomerase Type I inhibitory activity of the compounds of formula (I) was determined by cleavable complex in vitro assay. This assay performed according to the method described in Hsiang, Y. et al., J. Biol. Chem., 260:14873-14878 (1985), correlates well with in vivo anti-tumor activity of topoisomerase inhibitors in animal models of cancer, e.g., camptothecin and its analogs. See Hsiang et al., Cancer Research, 49:4385-4389 (1989) and Jaxel et al., Cancer Research, 49:1465-1469 (1989).

Another data set has as its system leukemia (L-1210). The note with it: laboratory animals; cited from earlier work.
The next data set has as its system certain solid tumors. The note with it: laboratory animals; cited from earlier work.
The conditions of data set [1]: cited from earlier work.
The test system of another data set is tumor. The note with it: background on camptothecin; cited from earlier work.
Another data set concerns topoisomerase I. The settings on record: background on camptothecin; cited from earlier work.
Data set [2] in a line: Oxidation during purification. The data set is classed as physicochemical. The note with it: oxidizes to the sulfinyl compound of Example 27. As for the experimental part:
Mp. 195° C. (dec). MS MH+554.

For data set [3] the following is noted: Wani et al.; cited from earlier work.

These results are taken from patent US6100273A, “Water soluble camptothecin derivatives” (priority 1997, dated 2000).

The structures appear in SMILES notation. Structures can show the parent of a compound that is named as a salt. Where two headings read alike, the source gives them in different places. Some results are limits rather than exact numbers.

As to `CC[C@@]1(O)C(=O)OCc2c1cc1n(c2=O)Cc2c-1nc1cc3c(cc1c2CSc1ccc(NC(=O)CN(C)C)cc1)OCCO3` [Example 28, 7-(4-(2-Dimethylaminoacetamido)phenylthio)methyl-10,11-(ethylenedioxy)-20(S)-camptothecin], the IC50 (usually the concentration that inhibits the measured activity by half) against topoisomerase Type I was over 500 nM.
As for `CC[C@@]1(O)C(=O)OCc2c1cc1n(c2=O)Cc2cc3ccccc3nc2-1` [Camptothecin], the “effectiveness in the treatment of leukemia (L-1210)” value in the data set with leukemia (L-1210) is given as “effective”. The “effectiveness in the treatment of certain solid tumors” value with certain solid tumors was “effective”. In addition, in data set [1], the “solubility in physiologically compatible, aqueous media” value is recorded as “essentially insoluble”. The antitumor activity entry with tumor was “potent antitumor agent”. Further, the “topoisomerase I inhibition” value in the data set on topoisomerase I is recorded as “topoisomerase I inhibitor”.
As to `CCC1(O)C(=O)OCc2c1cc1n(c2=O)Cc2c-1nc1cc3c(cc1c2C[n+]1ccccc1)OCCO3` (racemic) [Example 31, 7-Pyridinium methylene-10,11 ethylenedioxy-20(R,S)-camptothecin chloride], the IC50 on topoisomerase Type I was over 1000 nM.
`CC[C@@]1(O)C(=O)OCc2c1cc1n(c2=O)Cc2c-1nc1cc3c(cc1c2C[S+]([O-])CCCN(C)C)OCCO3` (stereo partly drawn) [Example 27, 7-(3-Dimethylaminopropylsulfinyl)methyl-10,11-(ethylenedioxy)-20(S)-camptothecin]: the oxidation during purification entry in data set [2] is reported as “readily oxidize”.
For the compound `CCCCOP(=O)(Cc1c2c(nc3cc4c(cc13)OCCO4)-c1cc3c(c(=O)n1C2)COC(=O)[C@]3(O)CC)OCCCC` [Example 15, 7-Di-n-butylphosphonomethylene-10,11-(ethylenedioxy)-20(S)-camptothecin], at topoisomerase Type I, the IC50 was over 2000 nM.
Consider `CC[C@@]1(O)C(=O)OCc2c1cc1n(c2=O)Cc2c-1nc1cc3c(cc1c2CSc1ccc(N)cc1)OCCO3` [Example 18, 7-(4-Aminophenylthio)methyl-10,11-(ethylenedioxy)-20(S)-camptothecin], for which the 50% inhibitory concentration (IC50) against topoisomerase Type I was over 500 nM.
Turning to `CCC1(O)C(=O)OCc2c1cc1n(c2=O)Cc2cc3cc4c(cc3nc2-1)OCO4` (stereo not drawn) [10,11-methylenedioxycamptothecin], the “potency relative to unsubstituted camptothecin” value in data set [3] is listed as “more potent”. For the same compound, the water solubility result in data set [1] (compared with camptothecin) was “as poor as camptothecin”.
With `CC[C@@](O)(C(=O)O)c1cc2n(c(=O)c1CO)Cc1cc3ccccc3nc1-2` [sodium salt], the “solubility in physiologically compatible, aqueous media” value in data set [1] was “soluble”.
On to `CC[C@@]1(O)C(=O)OCc2c1cc1n(c2=O)Cc2c-1nc1cc3c(cc1c2CSc1ccc(NC(C)=O)cc1)OCCO3` [Example 17, 7-(4-Acetamidophenylthio)methyl-10,11-(ethylenedioxy)-20(S)-camptothecin], for which the IC50 at topoisomerase Type I (read-out: topoisomerase Type I inhibitory activity (IC50), concentration at which 50% of the DNA substrate has been captured by topoisomerase 1) is over 500 nM.
Regarding `CC[C@@]1(O)C(=O)OCc2c1cc1n(c2=O)Cc2c-1nc1cc3c(cc1c2C[n+]1cccc(CO)c1)OCCO3` [Example 36, 7-(3'-Hydroxymethylpyridinium)methylene-10,11-ethylenedioxy-20(S)-camptothecin chloride], at topoisomerase Type I (concentration at which 50% of the DNA substrate has been captured by topoisomerase 1, read-out: topoisomerase Type I inhibitory activity (IC50)), the IC50 was over 500 nM.
